The values that follow are results of earlier work, collected in patent US5807857A, “Piperazine, piperidine and tetrahydropyridine derivative of indol-3-alkyl as 5-HT1D-α agonists” (Merck Sharp & Dohme Ltd., priority 1994, dated 1998).

Series [1] deals with human 5-HT1Dα and 5-HT1Dβ receptor subtypes. Particulars: cf. WO-A-91/17174, Table 1.
For series [2] the following is noted: administration to humans at therapeutic doses.

On to `CNS(=O)(=O)Cc1ccc2[nH]cc(CCN(C)C)c2c1` [sumatriptan], for which the “discrimination between the human 5-HT1Dα and 5-HT1Dβ receptor subtypes” value in series [1] is recorded as “barely discriminates”. The “adverse cardiovascular events in humans” value in series [2] is “certain adverse cardiovascular events”.
